# Columns and labels:
# Enterobacter cloacae [1] = assay: Antibacterial activity against Enterobacter cloacae assessed as post antibiotic effect at 10 times MIC concentration incubated for 1 hr measured after 1:1000 dilution by viable plate count method; assay type: functional
# Klebsiella pneumoniae [2] = assay: Antibacterial activity against Klebsiella pneumoniae assessed as sub-MIC effect at 0.4 times MIC concentration incubated for 1 hr by viable plate count method; assay type: functional
# Enterococcus faecalis [3] = assay: Antibacterial activity against vancomycin-sensitive Enterococcus faecalis by macrodilution method; assay type: functional
# Staphylococcus aureus [4] = assay: Antibacterial activity against vancomycin-sensitive methicillin-resistant Staphylococcus aureus assessed as post antibiotic effect at 6 times MIC concentration incubated for 1 hr measured after 1:1000 dilution by viable plate count method; assay type: functional
# Enterococcus faecalis [5] = assay: Antibacterial activity against Enterococcus faecalis assessed as post antibiotic effect; assay type: functional
# Haemophilus influenzae [6] = assay: Antibacterial activity against amoxicillin, clavulanate-resistant Haemophilus influenzae expressing beta-lactamase assessed as sub-MIC effect at 0.2 times MIC concentration incubated for 1 hr by viable plate count method; assay type: functional
# Enterobacter cloacae [7] = assay: Antibacterial activity against Enterobacter cloacae by macrodilution method; assay type: functional
# Enterobacter cloacae [8] = assay: Antibacterial activity against Enterobacter cloacae assessed as post antibiotic effect at 2 times MIC concentration incubated for 1 hr measured after 1:1000 dilution by viable plate count method; assay type: functional
# Staphylococcus aureus [9] = assay: Antibacterial activity against vancomycin-sensitive methicillin-resistant Staphylococcus aureus assessed as post antibiotic effect at 10 times MIC concentration incubated for 1 hr measured after 1:1000 dilution by viable plate count method; assay type: functional
# Acinetobacter baumannii [10] = assay: Antibacterial activity against Acinetobacter baumannii assessed as post antibiotic effect at 10 times MIC concentration incubated for 1 hr measured after 1:1000 dilution by viable plate count method; assay type: functional
# [11] = Drug level in patient serum at 100 mg, iv followed by 50 mg every 12 hrs after 60 mins post dose; assay type: ADME, organism-based; conditions: human, read-out: Drug uptake
# Klebsiella pneumoniae [12] = assay: Antibacterial activity against Klebsiella pneumoniae assessed as post-antibiotic sub-MIC effect at 0.2 times MIC concentration pretreated with 2 times MIC concentration for 1 hr followed by 1:1000 dilution by viable plate count method; assay type: functional
# Enterococcus faecalis [13] = assay: Antibacterial activity against vancomycin-resistant Enterococcus faecalis by macrodilution method; assay type: functional
# Staphylococcus aureus [14] = assay: Antibacterial activity against vancomycin-intermediate methicillin-resistant Staphylococcus aureus assessed as post antibiotic effect at 10 times MIC concentration incubated for 1 hr measured after 1:1000 dilution by viable plate count method; assay type: functional
# Haemophilus influenzae [15] = assay: Antibacterial activity against beta-lactamase deficient and ampicillin-resistant Haemophilus influenzae assessed as sub-MIC effect at 0.2 times MIC concentration incubated for 1 hr by viable plate count method; assay type: functional
# Haemophilus influenzae [16] = assay: Antibacterial activity against amoxicillin, clavulanate-resistant Haemophilus influenzae expressing beta-lactamase assessed as post-antibiotic sub-MIC effect at 0.4 times MIC concentration pretreated with 10 times MIC concentration for 1 hr followed by 1:1000 dilution by viable plate count method; assay type: functional
# Streptococcus pneumoniae [17] = assay: Antibacterial activity against penicillin-susceptible Streptococcus pneumoniae assessed as sub-MIC effect at 0.4 times MIC concentration incubated for 1 hr by viable plate count method; assay type: functional
# Acinetobacter baumannii [18] = assay: Antibacterial activity against Acinetobacter baumannii assessed as post-antibiotic sub-MIC effect at 0.4 times MIC concentration pretreated with 10 times MIC concentration for 1 hr followed by 1:1000 dilution by viable plate count method; assay type: functional
# Enterococcus faecalis [19] = assay: Antibacterial activity against vancomycin-resistant Enterococcus faecalis assessed as post-antibiotic sub-MIC effect at 0.2 times MIC concentration pretreated with 10 times MIC concentration for 1 hr followed by 1:1000 dilution by viable plate count method; assay type: functional
# Acinetobacter baumannii [20] = assay: (§1) Antibacterial activity against multidrug-resistant Acinetobacter baumannii producing OXA-24 and OXA-51 beta-lactamases assessed as post-antibiotic sub-MIC effect at 0.2 times MIC concentration pretreated with 2 times MIC concentration for 1 hr followed by 1:1000 dilution by viable plate count method; assay type: functional
# Klebsiella pneumoniae [21] = assay: Antibacterial activity against Klebsiella pneumoniae assessed as post-antibiotic sub-MIC effect at 0.4 times MIC concentration pretreated with 2 times MIC concentration for 1 hr followed by 1:1000 dilution by viable plate count method; assay type: functional
# Streptococcus pneumoniae [22] = assay: Antibacterial activity against penicillin-resistant Streptococcus pneumoniae assessed as post-antibiotic sub-MIC effect at 0.2 times MIC concentration pretreated with 10 times MIC concentration for 1 hr followed by 1:1000 dilution by viable plate count method; assay type: functional
# Streptococcus pneumoniae [23] = assay: Antibacterial activity against penicillin-susceptible Streptococcus pneumoniae assessed as post-antibiotic sub-MIC effect at 0.3 times MIC concentration pretreated with 10 times MIC concentration for 1 hr followed by 1:1000 dilution by viable plate count method; assay type: functional
# Escherichia coli = assay: Antibacterial activity against Escherichia coli assessed as post-antibiotic sub-MIC effect at 0.3 times MIC concentration pretreated with 10 times MIC concentration for 1 hr followed by 1:1000 dilution by viable plate count method; assay type: functional
# Enterococcus faecalis [24] = assay: Antibacterial activity against vancomycin-sensitive Enterococcus faecalis assessed as post antibiotic effect at 10 times MIC concentration incubated for 1 hr measured after 1:1000 dilution by viable plate count method; assay type: functional
# Haemophilus influenzae [25] = assay: Antibacterial activity against amoxicillin, clavulanate-resistant Haemophilus influenzae expressing beta-lactamase assessed as post-antibiotic sub-MIC effect at 0.4 times MIC concentration pretreated with 6 times MIC concentration for 1 hr followed by 1:1000 dilution by viable plate count method; assay type: functional
# Staphylococcus aureus [26] = assay: Antibacterial activity against vancomycin-intermediate methicillin-resistant Staphylococcus aureus assessed as sub-MIC effect at 0.4 times MIC concentration incubated for 1 hr by viable plate count method; assay type: functional
# Klebsiella pneumoniae [27] = assay: Antibacterial activity against Klebsiella pneumoniae assessed as post antibiotic effect at 10 times MIC concentration incubated for 1 hr measured after 1:1000 dilution by viable plate count method; assay type: functional
# Acinetobacter baumannii [28] = assay: as §1, with “at 0.4” for “at 0.2”, “with 10” for “with 2”; assay type: functional
# Staphylococcus aureus [29] = assay: Antibacterial activity against vancomycin-sensitive methicillin-resistant Staphylococcus aureus assessed as post-antibiotic sub-MIC effect at 0.2 times MIC concentration pretreated with 10 times MIC concentration for 1 hr followed by 1:1000 dilution by viable plate count method; assay type: functional
# Streptococcus pneumoniae [30] = assay: Antibacterial activity against penicillin-resistant Streptococcus pneumoniae by macrodilution method; assay type: functional
# Staphylococcus aureus [31] = assay: Antibacterial activity against vancomycin-intermediate methicillin-resistant Staphylococcus aureus assessed as post-antibiotic sub-MIC effect at 0.4 times MIC concentration pretreated with 6 times MIC concentration for 1 hr followed by 1:1000 dilution by viable plate count method; assay type: functional
# Streptococcus pneumoniae [32] = assay: Antibacterial activity against penicillin-intermediate Streptococcus pneumoniae assessed as post-antibiotic sub-MIC effect at 0.2 times MIC concentration pretreated with 10 times MIC concentration for 1 hr followed by 1:1000 dilution by viable plate count method; assay type: functional
# Enterococcus faecalis [33] = assay: Antibacterial activity against vancomycin-resistant Enterococcus faecalis assessed as post-antibiotic sub-MIC effect at 0.4 times MIC concentration pretreated with 10 times MIC concentration for 1 hr followed by 1:1000 dilution by viable plate count method; assay type: functional
# Enterobacter cloacae [34] = assay: Antibacterial activity against Enterobacter cloacae assessed as post-antibiotic sub-MIC effect at 0.3 times MIC concentration pretreated with 10 times MIC concentration for 1 hr followed by 1:1000 dilution by viable plate count method; assay type: functional
compound,measurement,setting,value
CN(C)c1cc(NC(=O)CNC(C)(C)C)c(O)c2c1C[C@H]1C[C@H]3[C@H](N(C)C)C(O)=C(C(N)=O)C(=O)[C@@]3(O)C(O)=C1C2=O [TIGECYCLINE],PAE,Enterobacter cloacae [1],1.2 h
same,PAE,Klebsiella pneumoniae [2],0.7 h
same,MIC,Enterococcus faecalis [3],0.06 µg/mL
same,PAE,Staphylococcus aureus [4],2.9 h
same,PAE,Enterococcus faecalis [5],1 h
same,PAE,Haemophilus influenzae [6],0 h
same,MIC,Enterobacter cloacae [7],0.5 µg/mL
same,PAE,Enterobacter cloacae [8],1 h
same,PAE,Staphylococcus aureus [9],3.2 h
same,PAE,Acinetobacter baumannii [10],2.9 h
same,concentration at 1 h,[11],600 ng/mL
same,PAE,Klebsiella pneumoniae [12],1.8 h
same,MIC,Enterococcus faecalis [13],0.06 µg/mL
same,PAE,Staphylococcus aureus [14],4 h
same,PAE,Haemophilus influenzae [15],0.8 h
same,PAE,Haemophilus influenzae [16],7.9 h
same,PAE,Streptococcus pneumoniae [17],0.8 h
same,PAE,Acinetobacter baumannii [18],11.2 h
same,PAE,Enterococcus faecalis [19],7.6 h
same,PAE,Acinetobacter baumannii [20],1.2 h
same,PAE,Klebsiella pneumoniae [21],2.6 h
same,PAE,Streptococcus pneumoniae [22],6.7 h
same,PAE,Streptococcus pneumoniae [23],8.8 h
same,PAE,Escherichia coli,2.2 h
same,PAE,Enterococcus faecalis [24],3.9 h
same,PAE,Haemophilus influenzae [25],7.7 h
same,PAE,Staphylococcus aureus [26],2.9 h
same,PAE,Klebsiella pneumoniae [27],1.7 h
same,PAE,Acinetobacter baumannii [28],3.8 h
same,PAE,Staphylococcus aureus [29],3.6 h
same,MIC,Streptococcus pneumoniae [30],0.03 µg/mL
same,PAE,Staphylococcus aureus [31],10 h
same,PAE,Streptococcus pneumoniae [32],6.1 h
same,PAE,Enterococcus faecalis [33],11 h
same,PAE,Enterobacter cloacae [34],5 h
